Source: US4263427A, “Monensin urethane derivatives” (priority 1979, dated 1981)
Converted amounts (≈) assume the structure as drawn. Where two headings read alike, the source gives them in different places.

Key:
[1] = tested on: Bacillus megaterium 8CU; experiment: Minimum Inhibitory Concentration, agarwell diffusion assay (Table 6); format: cell-based; conditions: for MIC: Priestia megaterium, 8CU, read-out: Minimum Inhibitory Concentration, Bacillus megaterium 8CU
Excerpt: (§1) (a) Lowest twofold dilution giving zone of inhibition in the agarwell
(§2) (b) NRRL collection number, all the rest ate ATCC numbers.

[2] = tested on: Bacillus sp. E 27859; experiment: as above; format: cell-based; conditions: for MIC: Bacillus
Excerpt: as §1, §2

[3] = tested on: Bacillus sp. TA 27860; experiment: as above; format: cell-based; conditions: for MIC: Bacillus
Excerpt: as §1, §2

[4] = tested on: Bacillus subtilis 583; experiment: as above; format: cell-based
Excerpt: as §1, §2

[5] = tested on: MycoBacterium phiel 355; experiment: as above; format: cell-based; conditions: for MIC: Mycobacterium, 355, read-out: Minimum Inhibitory Concentration, MycoBacterium phiel 355
Excerpt: as §1, §2

[6] = tested on: Paceilomyces variotl 25820; experiment: as above; format: cell-based; conditions: for MIC: read-out: Minimum Inhibitory Concentration, Paceilomyces variotl 25820
Excerpt: as §1, §2

[7] = tested on: Sarcina lutca 9341; experiment: as above; format: cell-based; conditions: for MIC: Sarcina, 9341, read-out: Minimum Inhibitory Concentration, Sarcina lutca 9341
Excerpt: as §1, §2

[8] = tested on: Staph. aureus 6538; experiment: as above; format: cell-based; conditions: for MIC: Staphylococcus aureus, 6538, read-out: Minimum Inhibitory Concentration, Staph. aureus 6538
Excerpt: as §1, §2

[9] = tested on: Streptococcus cellulosac 3313; experiment: as above; format: cell-based; conditions: for MIC: Streptococcus, 3313, read-out: Minimum Inhibitory Concentration, Streptococcus cellulosac 3313
Excerpt: as §1, §2

[10] = tested on: Streptococcus faecium 8043; experiment: as above; format: cell-based
Excerpt: as §1, §2

[11] = tested on: Treponema hyodysenteriae; experiment: Activity against Treponema hyodysenteriae (MIC, blood agar plates); format: cell-based; conditions: 42° C., anaerobic
Excerpt: Testing for activity against Treponema hyodysenteriae, a cause of swine dysentery consisted of inoculation of blood agar plates containing a series of two or fourfold dilutions of the monensin urethane derivatives with tenfold dilutions of the T. hyodysenteriae strain.

[12] = tested on: rumen fluid; conditions: control 100
[13] = Oral antihypertensive activity: blood pressure and heart rate (Table 9); format: in vivo; conditions: oral dose 10 mg/kg
Excerpt: Compounds of formula I, and their pharmaceutically acceptable salts are orally active as antihypertensive agents.

[14] = SP.E27859, Bacillus sp. E 27859, read-out: Minimum Inhibitory Concentration
[15] = SP.TA27860, Bacillus sp. TA 27860, read-out: Minimum Inhibitory Concentration
[16] = Bacillus subtilis, 583, Bacillus subtilis 583 (NRRL), read-out: Minimum Inhibitory Concentration
[17] = Enterococcus faecium, 8043, Streptococcus faecium 8043, read-out: Minimum Inhibitory Concentration

Row | Compound | MIC [1] [µg/mL] | MIC [2, 14] [µg/mL] | MIC [3, 15] [µg/mL] | MIC [4, 16] [µg/mL] | MIC [5] [µg/mL] | MIC [6] [µg/mL] | MIC [7] [µg/mL] | MIC [8] [µg/mL] | MIC [9] [µg/mL] | MIC [10, 17] [µg/mL] | further results
1 | CCCCNC(=O)OCC1(O)OC(C2CC(C)C(C3(CC)CCC(C4(C)CCC5(CC(O)C(C)C(C(C)C(OC)C(C)C(=O)O)O5)O4)O3)O2)C(C)CC1C (stereo not drawn) [Monensin A, N-butylurethane] | 0.8 (≈ 1.04 µM) | 0.2 (≈ 0.26 µM) | 0.4 (≈ 0.519 µM) | 0.4 (≈ 0.519 µM) | 6.3 (≈ 8.18 µM) | 6.3 (≈ 8.18 µM) | 1.6 (≈ 2.08 µM) | 1.6 (≈ 2.08 µM) | 3.1 (≈ 4.03 µM) | 0.2 (≈ 0.26 µM) | 
2 | CCC1(C2OC(C3OC(O)(COC(=O)Nc4ccc(C(C)=O)cc4)C(C)CC3C)CC2C)CCC(C2(C)CCC3(CC(O)C(C)C(C(C)C(OC)C(C)C(=O)O)O3)O2)O1 (stereo not drawn) [Monensin A,4-(methylcarbonyl) phenylurethane] | 1.6 (≈ 1.92 µM) | 0.2 (≈ 0.24 µM) | 0.8 (≈ 0.961 µM) | 1.6 (≈ 1.92 µM) | 6.3 (≈ 7.57 µM) | 6.3 (≈ 7.57 µM) | 1.6 (≈ 1.92 µM) | 1.6 (≈ 1.92 µM) | 3.1 (≈ 3.73 µM) | 0.8 (≈ 0.961 µM) | 
3 | Monensin A, 2-phenylurethane |  |  |  |  |  |  |  |  |  |  | MIC ([11]; 48 hours): 0.4 meg/ml
4 | CCC1(C2OC(C3OC(O)(COC(=O)NC)C(C)CC3C)CC2C)CCC(C2(C)CCC3(CC(O)C(C)C(C(C)C(OC)C(C)C(=O)O)O3)O2)O1 (stereo not drawn) [Monensin A, n-methylurethane] | 6.3 (≈ 8.65 µM) | 6.3 (≈ 8.65 µM) | 12.5 (≈ 17.2 µM) | 1.6 (≈ 2.2 µM) |  |  | 25 (≈ 34.3 µM) | 25 (≈ 34.3 µM) |  | 1.6 (≈ 2.2 µM) | 
5 | CC[C@@]1([C@@H]2O[C@@H]([C@H]3O[C@@](O)(CO)[C@H](C)C[C@@H]3C)C[C@@H]2C)CC[C@H]([C@]2(C)CC[C@]3(C[C@H](O)[C@@H](C)[C@@H]([C@@H](C)[C@@H](OC)[C@H](C)C(=O)O)O3)O2)O1 [Monensin] |  |  |  |  |  |  |  |  |  |  | Rate of Gas Production, Percent Production of Control Fermentations ([12]; 10 ppm): 85%; Total VFA, Percent Production of Control Fermentations ([12]; 10 ppm): 110.7%; Rate of Gas Production, Percent Production of Control Fermentations ([12]; 50 ppm): 89%; Total VFA, Percent Production of Control Fermentations ([12]; 50 ppm): 105.3%
6 | CCC1(C2OC(C3OC(O)(COC(=O)NC4CC4c4ccccc4)C(C)CC3C)CC2C)CCC(C2(C)CCC3(CC(O)C(C)C(C(C)C(OC)C(C)C(=O)O)O3)O2)O1 (stereo not drawn) [Monensin A, 2-(phenyl)-cyclopropyl urethane] | 0.8 (≈ 0.964 µM) | 0.4 (≈ 0.482 µM) | 0.4 (≈ 0.482 µM) | 0.8 (≈ 0.964 µM) | 3.1 (≈ 3.73 µM) | 6.3 (≈ 7.59 µM) | 0.8 (≈ 0.964 µM) | 3.1 (≈ 3.73 µM) | 12.5 (≈ 15.1 µM) | 0.2 (≈ 0.241 µM) | MIC ([11]; Brachyspira hyodysenteriae, 48 h): 0.4 µg/mL (≈ 0.482 µM)
7 | CCC1(C2OC(C3OC(O)(COC(=O)NCCc4ccccc4)C(C)CC3C)CC2C)CCC(C2(C)CCC3(CC(O)C(C)C(C(C)C(OC)C(C)C(=O)O)O3)O2)O1 (stereo not drawn) [Monensin A, 2-phenethylurethane] | 0.8 (≈ 0.978 µM) | 0.8 (≈ 0.978 µM) | 1.6 (≈ 1.96 µM) | 1.6 (≈ 1.96 µM) | 6.3 (≈ 7.7 µM) | 12.5 (≈ 15.3 µM) | 1.6 (≈ 1.96 µM) | 6.3 (≈ 7.7 µM) | 12.5 (≈ 15.3 µM) | 0.4 (≈ 0.489 µM) | Day of Maximum Change, Blood Pressure [13]: 5 days; Day of Maximum Change, Heart Rate [13]: 2 days; Maximum Change (%), Blood Pressure [13]: 15%; Maximum Change (%), Heart Rate [13]: 18%; Mean Blood Pressure at time of maximum effect [13]: 189 mm Hg; Mean Blood Pressure before treatment [13]: 223 mm Hg; Rate of Gas Production, Percent Production of Control Fermentations ([12]; 50 ppm): 101.7%; Total VFA, Percent Production of Control Fermentations ([12]; 50 ppm): 84.3%
8 | COC(C(C)C(=O)O)C(C)C1OC2(CCC(C)(C3CCC(C)(C4OC(C5OC(O)(COC(=O)NC(C)c6ccccc6)C(C)CC5C)CC4C)O3)O2)CC(O)C1C [Monensin B, (S)-1-phenethylurethane] |  |  |  |  |  |  |  |  |  |  | Minimum Inhibitory Concentration ([1]; Bacillus megaterium 8CU, listed as Monensin B,(S)-1-phenethylurethane): 0.4 meg/ml; Minimum Inhibitory Concentration ([2]; Bacillus sp. E 27859, listed as Monensin B,(S)-1-phenethylurethane): 0.1 meg/ml; Minimum Inhibitory Concentration ([3]; Bacillus sp. TA 27860, listed as Monensin B,(S)-1-phenethylurethane): 0.2 meg/ml; Minimum Inhibitory Concentration ([4]; Bacillus subtilis 583 (NRRL)): 0.8 meg/ml; Minimum Inhibitory Concentration ([5]; MycoBacterium phiel 355): 6.3 meg/ml; Minimum Inhibitory Concentration ([6]; Paceilomyces variotl 25820, listed as Monensin B,(S)-1-phenethylurethane): 6.3 meg/ml; Minimum Inhibitory Concentration ([7]; Sarcina lutca 9341): 1.6 meg/ml; Minimum Inhibitory Concentration ([8]; Staph. aureus 6538, listed as Monensin B,(S)-1-phenethylurethane): 1.6 meg/ml; Minimum Inhibitory Concentration ([9]; Streptococcus cellulosac 3313, listed as Monensin B,(S)-1-phenethylurethane): 6.3 meg/ml; Minimum Inhibitory Concentration ([10]; Streptococcus faecium 8043, listed as Monensin B,(S)-1-phenethylurethane): 0.2 meg/ml
9 | COC(C(C)C(=O)O)C(C)C1OC2(CCC(C)(C3CCC(C)(C4OC(C5OC(O)(COC(=O)NCCc6ccccc6)C(C)CC5C)CC4C)O3)O2)CC(O)C1C (stereo not drawn) [Monensin B, 2-phenethylurethane] | 3.1 (≈ 3.86 µM) | 1.6 (≈ 1.99 µM) | 3.1 (≈ 3.86 µM) | 3.1 (≈ 3.86 µM) | 25 (≈ 31.1 µM) |  | 3.1 (≈ 3.86 µM) | 6.3 (≈ 7.84 µM) | 12.5 (≈ 15.5 µM) | 0.8 (≈ 0.995 µM) | MIC ([11]; 48 hours, 2-phenethylurethane (natural product)): 0.4-2.0 meg/ml; MIC ([11]; 48 hours, 2-phenethylurethane (synthetic product)): 2.0 meg/ml; Day of Maximum Change, Blood Pressure [13]: 2 days; Day of Maximum Change, Heart Rate [13]: 3 days; Maximum Change (%), Blood Pressure [13]: 13%; Maximum Change (%), Heart Rate [13]: 14%; Mean Blood Pressure at time of maximum effect [13]: 189 mm Hg; Mean Blood Pressure before treatment [13]: 216 mm Hg; Rate of Gas Production, Percent Production of Control Fermentations ([12]; 10 ppm): 93%; Total VFA, Percent Production of Control Fermentations ([12]; 10 ppm): 157.8%; Rate of Gas Production, Percent Production of Control Fermentations ([12]; 50 ppm): 92%; Total VFA, Percent Production of Control Fermentations ([12]; 50 ppm): 149.1%
10 | CCC1(C2OC(C3OC(O)(COC(=O)Nc4ccc(Oc5ccccc5)cc4)C(C)CC3C)CC2C)CCC(C2(C)CCC3(CC(O)C(C)C(C(C)C(OC)C(C)C(=O)O)O3)O2)O1 (stereo not drawn) [Monensin A, 4-phenoxyphenylurethane] | 0.4 (≈ 0.453 µM) | 0.4 (≈ 0.453 µM) | 0.2 (≈ 0.227 µM) | 0.4 (≈ 0.453 µM) | 1.6 (≈ 1.81 µM) | 0.8 (≈ 0.907 µM) | 0.4 (≈ 0.453 µM) | 0.4 (≈ 0.453 µM) | 0.8 (≈ 0.907 µM) | 0.1 (≈ 0.113 µM) | 
11 | CCC1(C2OC(C3OC(O)(COC(=O)Nc4ccc(OC)cc4)C(C)CC3C)CC2C)CCC(C2(C)CCC3(CC(O)C(C)C(C(C)C(OC)C(C)C(=O)O)O3)O2)O1 (stereo not drawn) [Monensin A,4-methoxyphenylurethane] | 0.8 (≈ 0.976 µM) |  |  |  | 1.6 (≈ 1.95 µM) |  | 1.6 (≈ 1.95 µM) | 1.6 (≈ 1.95 µM) | 6.3 (≈ 7.68 µM) |  | MIC ([2]; SP.E27859, read-out: Minimum Inhibitory Concentration, Bacillus sp. E 27859): 0.1 µg/mL (≈ 0.122 µM); MIC ([3]; SP.TA27860, read-out: Minimum Inhibitory Concentration, Bacillus sp. TA 27860): 6.3 µg/mL (≈ 7.68 µM); MIC ([4]; Bacillus subtilis, 583, read-out: Minimum Inhibitory Concentration, Bacillus subtilis 583 (NRRL)): 0.8 µg/mL (≈ 0.976 µM); MIC ([10]; Enterococcus faecium, 8043, read-out: Minimum Inhibitory Concentration, Streptococcus faecium 8043): 0.4 µg/mL (≈ 0.488 µM)
